Patent US20230000813A1, “COMPOUND FOR THE TREATMENT OF BOVINE OR SWINE RESPIRATORY DISEASE” (Intervet Inc., priority 2016, published 2023)
Values after ≈ are worked out from the molar mass of the structure shown.

Columns and labels:
Assay in all cases: MIC, broth-microdilution (CLSI VET01-A4)
Format in all cases: cell-based
[1] = tested on: Pasteurella multocida PM 6391 (ATCC 43137, reference strain); conditions: Pasteurella multocida PM 6391; for MIC: read-out: MIC PM 6391
Method in brief: (§1)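 Broth microdilution per CLSI VET01-A4 using doubling dilution series of test compound; results interpreted per CLSI VET01-S3. MIC recorded as lowest concentration giving no turbidity visible to the unaided eye.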

[2] = tested on: Pasteurella multocida PM 12080 (IV102277-0093, BRD field isolate); conditions: Pasteurella multocida PM 12080; for MIC: read-out: MIC PM 12080
Method in brief: as §1

[3] = tested on: Mannheimia haemolytica MH 12587 (1071, BRD field isolate, macrolide-resistance: erm+, E+); conditions: Mannheimia haemolytica MH 12587, macrolide-resistant
Method in brief: as §1

[4] = tested on: Pasteurella multocida PM 6267 (P 2225 (L386), reference strain, mouse infection strain); conditions: Pasteurella multocida PM 6267
Method in brief: as §1

[5] = tested on: Mannheimia haemolytica MH 6374 (ATCC 33396, reference strain); conditions: Mannheimia haemolytica MH 6374; read-out: MIC MH 6374
Method in brief: as §1

[6] = tested on: Mannheimia haemolytica MH 6357 (M7/2, reference strain, cattle infection strain); conditions: Mannheimia haemolytica MH 6357; read-out: MIC MH 6357
Method in brief: as §1

[7] = tested on: Pasteurella multocida PM 10775 (080130003051, BRD field isolate); conditions: Pasteurella multocida PM 10775
Method in brief: as §1

[8] = tested on: Mannheimia haemolytica MH 10720 (154, BRD field isolate); conditions: Mannheimia haemolytica MH 10720; for MIC: read-out: MIC MH 10720
Method in brief: as §1

[9] = tested on: Mannheimia haemolytica MH 13093 (XB0472-6014.1, BRD field isolate)
Method in brief: (§2)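 MIC read by eye as lowest compound concentration without visible growth (no turbidity), interpreted per CLSI VET01-S3. Doubling-dilution broth-microdilution trays, run according to CLSI VET01-A4.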

[10] = tested on: Mannheimia haemolytica MH 13065 (XB0446-6003.9, BRD field isolate)
Method in brief: as §2

SMILES | MIC [1] [µM] | MIC [2] [µM] | MIC MH 12587 [3] [µM] | MIC PM 6267 [4] | MIC [5] [µM] | MIC [6] [µM] | MIC PM 10775 [7] | MIC MH 10720 [8] | MIC [9] [µM] | MIC [10] [µM] | MIC PM 6391 [1] | MIC PM 12080 [2] | MIC ([4]; read-out: MIC PM 6267) [µM] | MIC [8] [µM]
CCC(C)C(NC(=O)c1ccc(C#Cc2ccc(CNC3CC3)cc2)cc1)C(=O)NO (stereo not drawn) [Compound 164] | 0.391 (≈ 0.164 µg/mL) | 0.2 (≈ 0.0839 µg/mL) | 0.8 (≈ 0.336 µg/mL) | <=0.1 μM | 0.781 (≈ 0.328 µg/mL) | 0.391 (≈ 0.164 µg/mL) | <=0.1 μM | <=0.1 μM | 0.4 (≈ 0.168 µg/mL) | 0.4 (≈ 0.168 µg/mL) |  |  |  | 
Cc1ccc(CNCc2ccc(C#Cc3ccc(C(=O)N[C@H](C(=O)NO)[C@@H](C)O)cc3)cc2)cc1 [Compound 261] |  |  | 0.8 (≈ 0.377 µg/mL) | <=0.1 μM | 0.2 (≈ 0.0943 µg/mL) | 0.2 (≈ 0.0943 µg/mL) | <=0.1 μM | <=0.1 μM | 0.8 (≈ 0.377 µg/mL) | 0.4 (≈ 0.189 µg/mL) | <=0.1 μM | <=0.1 μM |  | 
C[C@@H](O)[C@H](NC(=O)c1ccc(C#Cc2ccc(CNCc3ccccc3)cc2)cc1)C(=O)NO [Compound 2] |  |  | 0.8 (≈ 0.366 µg/mL) | <=0.1 μM | 0.2 (≈ 0.0915 µg/mL) | 0.2 (≈ 0.0915 µg/mL) | <=0.1 μM | <=0.1 μM | 0.8 (≈ 0.366 µg/mL) | 1 (≈ 0.458 µg/mL) | <=0.1 μM | <=0.1 μM |  | 
CSC(C)(C)C(NC(=O)c1ccc(C#Cc2ccc(CNC3CC3)cc2)cc1)C(=O)NO (stereo not drawn) [Compound 581] |  |  | 1.6 (≈ 0.723 µg/mL) | <=0.1 μM | 0.8 (≈ 0.361 µg/mL) | 0.4 (≈ 0.181 µg/mL) | <=0.1 μM | <=0.1 μM | 0.4 (≈ 0.181 µg/mL) | 0.4 (≈ 0.181 µg/mL) | <=0.1 μM | <=0.1 μM |  | 
C[C@@H](O)[C@H](NC(=O)c1ccc(C#Cc2ccc(CNCc3cccnc3)cc2)cc1)C(=O)NO [Compound 256] |  |  | 1.6 (≈ 0.734 µg/mL) | <=0.1 μM | 0.4 (≈ 0.183 µg/mL) | 0.4 (≈ 0.183 µg/mL) | <=0.1 μM | <=0.1 μM | 0.8 (≈ 0.367 µg/mL) | 0.8 (≈ 0.367 µg/mL) | <=0.1 μM | <=0.1 μM |  | 
CSC(C)(C)[C@H](NC(=O)c1ccc(C#Cc2ccc(CNCc3ccccn3)cc2)cc1)C(=O)NO [Compound 595] | 0.8 (≈ 0.402 µg/mL) | 0.4 (≈ 0.201 µg/mL) | 1.6 (≈ 0.804 µg/mL) |  | 1.6 (≈ 0.804 µg/mL) | 0.8 (≈ 0.402 µg/mL) | <=0.1 μM |  | 0.8 (≈ 0.402 µg/mL) | 0.8 (≈ 0.402 µg/mL) |  |  | 0.2 (≈ 0.101 µg/mL) | 0.2 (≈ 0.101 µg/mL)
C[C@@H](O)[C@H](NC(=O)c1ccc(C#Cc2ccc(CNCc3ccccn3)cc2)cc1)C(=O)NO [C. 258] | 0.2 (≈ 0.0917 µg/mL) |  | 1.6 (≈ 0.734 µg/mL) | <=0.1 μM | 0.8 (≈ 0.367 µg/mL) | 0.4 (≈ 0.183 µg/mL) | <=0.1 μM |  | 0.8 (≈ 0.367 µg/mL) | 0.8 (≈ 0.367 µg/mL) |  | <=0.1 μM |  | 0.2 (≈ 0.0917 µg/mL)
CC(C)(N)C(NC(=O)c1ccc(C#Cc2ccc(CNCc3nccs3)s2)cc1)C(=O)NO (stereo not drawn) [Compound 564] |  |  | 0.8 (≈ 0.387 µg/mL) | <=0.1 μM | 0.4 (≈ 0.193 µg/mL) | 0.8 (≈ 0.387 µg/mL) | <=0.1 μM | <=0.1 μM | 0.8 (≈ 0.387 µg/mL) | 0.8 (≈ 0.387 µg/mL) | <=0.1 μM | <=0.1 μM |  | 
CC(C)(O)C(NC(=O)c1ccc(C#Cc2ccc(CNCc3ccnc(Cl)c3)cc2)cc1)C(=O)NO (stereo not drawn) [Compound 575] |  |  | 0.4 (≈ 0.203 µg/mL) | <=0.1 μM | 0.4 (≈ 0.203 µg/mL) | 0.4 (≈ 0.203 µg/mL) | <=0.1 μM | <=0.1 μM | 0.4 (≈ 0.203 µg/mL) | 0.2 (≈ 0.101 µg/mL) | <=0.1 μM | <=0.1 μM |  | 
